Counter-ions that a name gives are not always drawn.
How the values were obtained:
[1] = system: human keratinocytes cell line NCTC2544; assay: MTT assay with induced oxidative stress (1 mM H2O2); type: cell-based; conditions: NCTC-2544, 0.5 μM compound, 16 h pre-treatment, then 1 mM H2O2 for 90 minutes, read-out: % viability (cell viability compared to not stressed control cells)
Excerpt: In the intracellular environment, said formazan forms insoluble crystals to which the membranes are substantially impermeable: the molecule is therefore allowed to entry the cell, but not to exit it, if the molecule is correctly metabolized, i.e. if the electron transport chains are still metabolically active (that is equipped with an active reducing power).
This assay measures the viability of cells subjected to oxidative stress, and is therefore interpreted not only as an indicator of the antioxidant activity but also as an indicator of protection from oxidative stress and enhancement of cellular antioxidant defenses, in general terms being the test non-specific.
With the transformation of MTT, a change in color of the molecule from yellow to dark blue-violet is seen; therefore, to estimate the number of active mitochondria and, therefore, the number of viable cells in the sample, a colorimetric assay with a spectrophotometer read-out is used.
The protocol described below is used as a screening tool for the activity of the compounds of the invention object of the study, after induction of oxidative stress in the human keratinocytes cell line NCTC2544 through application of 1 mM hydrogen peroxide, according to a specific bibliographic reference (Rajapakse et al., 2004). The assay was conducted according to the method described by Coda and collaborators, with some modifications
The NCTC 2544 human keratinocytes were seeded in a 96-well plate at a density of 5*10^4 cells/well and incubated at 37° C. and 5% CO2, until reaching approximately 80% confluence.
The cells were then pretreated for 16 hours with the compounds of the invention to be tested in different concentrations, and with α-tocopherol, tested at the […] and 1 mM concentrations, as a reference. Cells treated with 1 mM H2O2 were used as negative control; however, cells maintained in culture in complete medium, served as the positive control.
At the end of the 16 hours of pre-treatment, the cells were washed with 1×PBS and incubated for 90 minutes with a 1 mM H2O2 solution (Sigma-Aldrich, St. Louis, Mo., USA) in serum-free medium at 37° C. and 5% CO2, in the dark.
Once the oxidative stress induction phase was completed, the evaluation of cell viability of the various samples was carried out, according to the method previously described (MTT assay).
The data were expressed as the percentage of cell viability compared to not stressed control cells (ctr), according to the following formula: % cell viability/ctr=(Abs sample/Abs ctr)*100
All analyzes were performed at least twice in duplicate.

[2] = system: TNF-α gene expression in NCTC 2544 human keratinocytes; assay: In vitro inflammation test: LPS-induced TNF-α gene expression by qRT-PCR; type: cell-based; conditions: 5 μM compound, LPS 5 μg/ml, 24 h, NCTC 2544 keratinocytes
Procedure: A immortalized line of NCTC 2544 human keratinocytes (Perry V. P. et al., 1957), kept in culture in sterile flasks ([…]), incubated at 37° C. in a humid atmosphere with 5% CO2 in MEM (Minimum Essential Medium) culture medium added with 10% fetal bovine serum (FBS), 2 mM glutamine, 1% non-essential amino acids, in the presence of 1% of penicillin and streptomycin, is used.
When the cells (NCTC 2544 human keratinocytes) reached approximately 80% confluence, they were detached with trypsin/EDTA and seeded at a density of 1×10^6 cells/ml in 12-well plates, and then incubated at 37° C., 5% CO2 (24 h). […]
The activity of the compounds under study on TNF-α gene expression was assessed by relative quantitative RT-PCR (quantitative reverse transcription-polymerase chain reaction-qRT-PCR). […]
With the use of a spectrophotometer (Jenway UV/VIS MOD: 6715, BS-6715B0), the μg/mL concentrations of the total RNA extracted were calculated, at a wavelength of 260 nm.
Finally, the RNA integrity (2 μg/mL) was evaluated by means of an electrophoretic run on 1% agarose gel.
The RNA extracted and quantified was diluted at a concentration of 2 μg/mL and reverse-transcribed into cDNA. […]

| SMILES | viability at 0.5 µM [1] | anti-inflammatory activity (TNF-α assay, FIG. 2) [2] |
| --- | --- | --- |
| C/C=C/C=C/C=C/C(=O)O [octatrienoic acid arginine salt, Octatrienoic acid arginine salt] | 91.5% | – |
| Oc1ccc(C=Cc2cc(O)cc(O)c2)cc1 [resveratrol] | ~75% | proves not to have |
| C/C=C/C=C/C=C/C(=O)Oc1cc(/C=C/c2ccc(O)cc2)cc(OC(=O)/C=C/C=C/C=C/C)c1 [resveratrol di-octatrienoate, Resveratrol 3,5-di-octatrienoate] | 120% | – |
| CC=CC=CC=CC(=O)O [octatrienoic acid, 2,4,6-octatrienoic acid] | ~75% | – |

— patent US9738682B2, “Compounds with a combined antioxidant activity against free radicals together with an anti-inflammatory action, and pharmaceutical and cosmetic compositions containing them for the treatment of skin and hair” (GIULIANI S.P.A., priority 2014, dated 2017)
